Results on 30 compounds are retold here after patent US20200172483A1, “HETEROCYCLIC SMALL MOLECULE MODULATORS OF HUMAN STING” (Curadev Pharma Limited, priority 2017, published 2020).

T1 sequence (Q86WV6 whole entry H232R): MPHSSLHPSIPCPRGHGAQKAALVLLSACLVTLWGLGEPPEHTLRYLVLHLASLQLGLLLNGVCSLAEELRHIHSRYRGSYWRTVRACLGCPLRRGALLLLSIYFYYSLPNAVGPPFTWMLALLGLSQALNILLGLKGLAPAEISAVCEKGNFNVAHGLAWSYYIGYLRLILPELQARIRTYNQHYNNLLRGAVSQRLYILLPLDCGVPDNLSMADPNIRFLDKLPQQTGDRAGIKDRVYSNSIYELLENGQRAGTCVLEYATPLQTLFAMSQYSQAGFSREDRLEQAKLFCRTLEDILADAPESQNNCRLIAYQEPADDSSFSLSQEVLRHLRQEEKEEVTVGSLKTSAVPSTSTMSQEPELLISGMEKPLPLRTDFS

This assay concerns the target T1, WT/R232 STING protein (Homo sapiens, UniProt Q86WV6, H232R).
T1 construct: host or cells: HEK293T
The experiment in a line: Luciferase reporter assay in HEK293T-hSTING-Luciferase cells (R232). To be noted: 20 hr stimulation, EC50 range. In kind it is cell-based. From the text:
• a) Stable STING expressing cells—Stable HEK293T STING-expressing cell lines were generated using plasmids purchased from Invivogen, CA, USA, that contain STING cDNA cloned into the pUNO-1 vector under hEF1-HTLV promoter and containing the Blasticidin selection cassette. The plasmids hSTING (R232), hSTING (H232), hSTING (HAQ) were directly procured from Invivogen while hSTING (AQ) and hSTING (Q) were derived from hSTING (HAQ) and hSTING (R232) plasmids respectively by using a PCR based site directed mutagenesis method. These vectors were individually transfected into HEK293T cells using Lipofectamine (Invitrogen) and transfected cells were selected under Blasticidin selection. These transfected cells were further subjected to clonal selection using the limiting dilution method to obtain clonally pure populations of HEK cells transfected with each of the above mentioned human STING variants. Only those clones were selected in which ligand independent activation of STING was minimal. • b) Stable Luciferase reporter gene expressing cells—Stable HEK293T Luciferase reporter gene expressing cell lines were generated using pCDNA4 plasmids under an IRF-inducible promoter. This promoter is comprised of five tandem interferon-stimulated response elements (ISRE) fused to an ISG54 minimal promoter. This vector was transfected into HEK293T cells using Lipofectamine (Invitrogen) and transfected cells were selected under Zeocin selection. These transfected cells were further subjected to clonal selection using the limiting dilution method to obtain clonally pure populations of HEK cells transfected the Luciferase reporter construct. Only those clones were selected in which ligand independent induction of luciferase was minimal.
5×10^5 clonally selected HEK293T-hSTING-Luciferase cells were seeded in 384-well plates in growth medium and stimulated with novel compounds. After 20 hr of stimulation supernatant were removed and secretary reporter gene activity were measured using the Quanti-Luc detection system (Invivogen) on a Spectramax i3X luminometer.
All compounds were first tested in a primary screen using WT/R232 STING protein to obtain a ‘fold-induction’ over baseline levels of protein activity.
On the technique in general: A reporter such as luciferase makes a cellular process visible.
The term EC50 denotes the concentration giving half of the maximal effect. With `CNC1(C)C(=O)N(Cc2cc(F)cc(F)c2)c2cc(C(=O)NCc3c(F)cc(F)cc3F)ccc21` (stereo not drawn) [Example 145, 1-(3,5-Difluorobenzyl)-3-methyl-3-(methylamino)-2-oxo-N-(2,4,6-trifluorobenzyl)indoline-6-carboxamide], the 50% effective concentration (EC50) fell in the range of 1 to 10 µM. The figure for `CC1(C)C(=O)N(Cc2ccccc2F)c2cc(C(=O)N(CC(=O)O)Cc3ccco3)ccc21` [Example 3, 2-(1-(2-fluorobenzyl)-N-(furan-2-ylmethyl)-3,3-dimethyl-2-oxoindoline-6-carboxamido)acetic acid] is over 10 µM; for `CC1(C)C(=O)N(Cc2cc(F)cc(F)c2)c2c1ccc(C(=O)NCc1c(F)cc(F)cc1F)c2F` [Example 35, 1-(3,5-difluorobenzyl)-7-fluoro-3,3-dimethyl-2-oxo-N-(2,4,6-trifluorobenzyl)indoline-6-carboxamide] it is over 10 µM. For `CC1(C)C(=O)N(Cc2cccc(F)c2)c2cc(C(=O)NCc3ccco3)ccc21` [Example 42, 1-(3-fluorobenzyl)-N-(furan-2-ylmethyl)-3,3-dimethyl-2-oxoindoline-6-carboxamide], the EC50 is over 10 µM. The compound `CC1(C)C(=O)N(Cc2ccccc2)c2cc(C(=O)NCc3ccccc3)ccc21` [Example 10, N,1-dibenzyl-3,3-dimethyl-2-oxoindoline-6-carboxamide] yielded a 50% effective concentration (EC50) of 1 to 10 µM. `CC1(C)C(=O)N(Cc2cc(F)cc(F)c2)c2cc(C(=O)NCc3c(F)cc(F)cc3F)ncc21` [Example 186, 1-(3,5-difluorobenzyl)-3,3-dimethyl-2-oxo-N-(2,4,6-trifluorobenzyl)-2,3-dihydro-1H-pyrrolo[3,2-c]pyridine-6-carboxamide]: the EC50 is over 10 µM. As for `CC1(CCCO)C(=O)N(Cc2c(F)cccc2Cl)c2cc(C(=O)NCc3c(F)cc(F)cc3F)ccc21` (stereo not drawn) [Example 177, 1-(2-chloro-6-fluorobenzyl)-3-(3-hydroxypropyl)-3-methyl-2-oxo-N-(2,4,6-trifluorobenzyl)indoline-6-carboxamide], the concentration giving a half-maximal response (EC50) was over 10 µM. Compound `CC1(C)C(=O)N(Cc2c(F)cccc2Cl)c2cc(C(=O)NCc3cccc4c3OCO4)ccc21` [Example 87, N-(benzo[d][1,3]dioxol-4-ylmethyl)-1-(2-chloro-6-fluorobenzyl)-3,3-dimethyl-2-oxoindoline-6-carboxamide] had an EC50 of over 10 µM.

In turn, `CC1(C)C(=O)N(Cc2ccccc2F)c2cc(C(=O)NCc3ccco3)ccc21` [Example 1, 1-(2-Fluorobenzyl)-N-(furan-2-ylmethyl)-3,3-dimethyl-2-oxoindoline-6-carboxamide] had a 50% effective concentration (EC50) of 1 to 10 µM.

`CC1(C)c2ccc(C(=O)NCc3c(F)cc(F)cc3F)cc2N(Cc2c(F)cccc2Cl)S1(=O)=O` [Example 134, 1-(2-Chloro-6-fluorobenzyl)-3,3-dimethyl-N-(2,4,6-trifluorobenzyl)-1,3-dihydrobenzo[c]isothiazole-6-carboxamide 2,2-dioxide] gave a concentration giving a half-maximal response (EC50) of over 10 µM. The figure for `CC1(C)C(=O)N(Cc2ccc(C(N)=O)cc2F)c2cc(C(=O)NCc3c(F)cc(F)cc3F)ccc21` [Example 121, 1-(4-carbamoyl-2-fluorobenzyl)-3,3-dimethyl-2-oxo-N-(2,4,6-trifluorobenzyl)indoline-6-carboxamide] is 1 to 10 µM. The figure for `CC1(CC(=O)O)C(=O)N(Cc2cc(F)cc(F)c2)c2cc(C(=O)NCc3c(F)cc(F)cc3F)ccc21` (stereo not drawn) [Example 169, 2-(1-(3,5-difluorobenzyl)-3-methyl-2-oxo-6-((2,4,6-trifluorobenzyl)carbamoyl)indolin-3-yl)acetic acid] is over 10 µM; for `Cc1cccc(F)c1CN1C(=O)C(C)(C)c2ccc(C(=O)NCc3ccc(F)cc3)nc21` [Example 194, 1-(2-fluoro-6-methylbenzyl)-N-(4-fluorobenzyl)-3,3-dimethyl-2-oxo-2,3-dihydro-1H-pyrrolo[2,3-b]pyridine-6-carboxamide] it is 1 to 10 µM.

`Cn1cc(CN2C(=O)C(C)(C)c3ccc(C(=O)NCc4c(F)cc(F)cc4F)cc32)cn1` [Example 68, 3,3-dimethyl-1-((1-methyl-1H-pyrazol-4-yl)methyl)-2-oxo-N-(2,4,6-trifluorobenzyl)indoline-6-carboxamide] registered a 50% effective concentration (EC50) of 1 to 10 µM. In turn, `CC1(C)C(=O)N(Cc2c(F)cccc2Cl)c2cc(C(=O)NCc3ccc(N)cc3)ccc21` [Example 85, N-(4-aminobenzyl)-1-(2-chloro-6-fluorobenzyl)-3,3-dimethyl-2-oxoindoline-6-carboxamide] showed a concentration giving a half-maximal response (EC50) of 1 to 10 µM. `CC1(N)C(=O)N(Cc2ccccc2F)c2cc(C(=O)NCc3c(F)cc(F)cc3F)ccc21` (stereo not drawn) [Example 154, 3-amino-1-(2-fluorobenzyl)-3-methyl-2-oxo-N-(2,4,6-trifluorobenzyl)indoline-6-carboxamide]: the EC50 was over 10 µM.

For the compound `Cc1ccc(CNC(=O)c2ccc3c(c2)N(Cc2c(F)cccc2Cl)C(=O)C3(C)C)s1` [Example 24, 1-(2-chloro-6-fluorobenzyl)-3,3-dimethyl-N-((5-methylthiophen-2-yl)methyl)-2-oxoindoline-6-carboxamide], the concentration for a half-maximal effect (EC50) lay within 1 to 10 µM. `O=C(NCc1c(F)cc(F)cc1F)c1ccc2c(c1)N(Cc1cc(F)cc(F)c1)C(=O)C2=O` [Example 141, 1-(3,5-Difluorobenzyl)-2,3-dioxo-N-(2,4,6-trifluorobenzyl)indoline-6-carboxamide] displayed an EC50 of over 10 µM. `CC1(CCN)C(=O)N(Cc2cc(F)cc(F)c2)c2cc(C(=O)NCc3c(F)cc(F)cc3F)ccc21` (stereo not drawn) [Example 173, 3-(2-aminoethyl)-1-(3,5-difluorobenzyl)-3-methyl-2-oxo-N-(2,4,6-trifluorobenzyl)indoline-6-carboxamide] displayed an EC50 of over 10 µM. The compound `O=C(NCc1ccco1)c1ccc2oc(=O)n(Cc3ccccc3F)c2c1` [Example 200, 3-(2-Fluorobenzyl)-N-(furan-2-ylmethyl)-2-oxo-2,3-dihydrobenzo[d]oxazole-5-carboxamide] gave an EC50 of over 10 µM. Turning to `CC1(C)C(=O)N(Cc2cc(F)cc(F)c2)c2cc(C(=O)NCc3cccc(C(F)(F)F)c3)ccc21` [Example 45, 1-(3,5-difluorobenzyl)-3,3-dimethyl-2-oxo-N-(3-(trifluoromethyl)benzyl)indoline-6-carboxamide], the 50% effective concentration (EC50) is over 10 µM. On to `CC1C(=O)N(Cc2cc(F)cc(F)c2)c2cc(C(=O)NCc3c(F)cc(F)cc3F)ccc21` (stereo not drawn) [Example 53, 1-(3,5-difluorobenzyl)-3-methyl-2-oxo-N-(2,4,6-trifluorobenzyl)indoline-6-carboxamide], for which the 50% effective concentration (EC50) is over 10 µM. Turning to `Cc1ccnc(CNC(=O)c2ccc3c(c2)N(Cc2c(F)cccc2Cl)C(=O)C3(C)C)c1` [Example 32, 1-(2-chloro-6-fluorobenzyl)-3,3-dimethyl-N-((4-methylpyridin-2-yl)methyl)-2-oxoindoline-6-carboxamide], the EC50 is over 10 µM. `CC1(C)C(=O)N(Cc2ccncc2)c2cc(C(=O)NCc3c(F)cc(F)cc3F)ccc21` [Example 22, 3,3-dimethyl-2-oxo-1-(pyridin-4-ylmethyl)-N-(2,4,6-trifluorobenzyl)indoline-6-carboxamide] yielded a concentration for a half-maximal effect (EC50) of 1 to 10 µM.

`CN(C)C1(C)C(=O)N(Cc2c(F)cccc2Cl)c2cc(C(=O)NCc3c(F)cc(F)cc3F)ccc21` (stereo not drawn) [Example 152, 1-(2-chloro-6-fluorobenzyl)-3-(dimethylamino)-3-methyl-2-oxo-N-(2,4,6-trifluorobenzyl)indoline-6-carboxamide]: the EC50 was 1 to 10 µM. `CC1(C)C(=O)N(Cc2cc(F)cc(F)c2)c2cc(C(=O)NCc3cccc(N=[N+]=[N-])c3)ccc21` [Example 47, N-(3-azidobenzyl)-1-(3,5-difluorobenzyl)-3,3-dimethyl-2-oxoindoline-6-carboxamide] registered an EC50 of 1 to 10 µM. As to `Cc1ncc(CN2C(=O)C(C)(C)c3ccc(C(=O)NCc4c(F)cc(F)cc4F)cc32)s1` [Example 58, 3,3-dimethyl-1-((2-methylthiazol-5-yl)methyl)-2-oxo-N-(2,4,6-trifluorobenzyl)indoline-6-carboxamide], the concentration for a half-maximal effect (EC50) lay in the range of 1 to 10 µM.

For the compound `CC1(CC#N)C(=O)N(Cc2cc(F)cc(F)c2)c2cc(C(=O)NCc3c(F)cc(F)cc3F)ccc21` (stereo not drawn) [Example 178, 3-(cyanomethyl)-1-(3,5-difluorobenzyl)-3-methyl-2-oxo-N-(2,4,6-trifluorobenzyl)indoline-6-carboxamide], the EC50 fell in the range of 1 to 10 µM. The compound `CC1(C)C(=O)N(Cc2cc(F)cc(F)c2)c2nc(C(=O)NCc3c(F)cc(F)cc3F)ccc21` [Example 180, 1-(3,5-difluorobenzyl)-3,3-dimethyl-2-oxo-N-(2,4,6-trifluorobenzyl)-2,3-dihydro-1H-pyrrolo[2,3-b]pyridine-6-carboxamide] gave a half-maximal effective concentration (EC50) of 1 to 10 µM. As for `CC1(C)CN(C(=O)c2c(F)cccc2Cl)c2cc(C(=O)NCc3ccco3)ccc21` [Example 132, 1-(2-chloro-6-fluorobenzoyl)-N-(furan-2-ylmethyl)-3,3-dimethylindoline-6-carboxamide], the figure is over 10 µM.
